Where two headings read alike, the source gives them in different places.
Assays:
hGSTM1-1 [1] = molecular target: T1, hGSTM1-1 (Homo sapiens, UniProt P09488); assay: biochemical; parameters: made in house; host or cells: E. coli
T1 sequence (P09488 1-218): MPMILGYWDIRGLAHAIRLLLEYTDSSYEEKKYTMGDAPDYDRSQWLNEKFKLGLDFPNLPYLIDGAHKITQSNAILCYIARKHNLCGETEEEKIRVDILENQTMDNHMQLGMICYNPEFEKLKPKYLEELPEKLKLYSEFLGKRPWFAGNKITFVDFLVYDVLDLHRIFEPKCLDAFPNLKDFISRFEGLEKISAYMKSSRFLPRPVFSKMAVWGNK
Experimental: (§1) Reduced GST assays were performed by monitoring the formation of the conjugate of CDNB (1 mM) with GSH (2.5 mM) at 340 nm (ε = 9.6 mM^−1cm^−1) for 120 s according to a published method. One unit of enzyme activity is defined as the amount of enzyme that produces 1 μmol of product per minute under the assay conditions.
Pesticide screening and inhibition potency evaluation towards hGSTM1-1 were carried out in the assay system described above in the presence of 25 μM pesticide diluted in acetone. During the assay, no measurable pesticide/GSH reaction was detected. The percentage of enzyme inhibition (I) was calculated using the following equation:%I = [(Ro − Ri)/Ro] × 100(3) where Ro is the unit of enzyme activity increase for the uninhibited reaction and Ri is the rate of increase for the inhibited reaction. Both Ri and Ro correspond to the same substrate concentration.

hGSTM1-1 [2] = molecular target: T1, hGSTM1-1; assay: IC50 determination, concentration-response in CDNB-GSH assay; type: biochemical; parameters: made in house; host or cells: E. coli
Experimental: as §1
[…]. The IC50 values were determined using the program GraphPad Prism (GraphPad Software Inc., Version 7, San Diego, CA, USA).

hGSTM1-1 [3] = molecular target: T1, hGSTM1-1; assay: Kinetic inhibition study with pirimicarb (Lineweaver-Burk and secondary plots); type: biochemical; parameters: made in house; host or cells: E. coli; conditions: for Ki: Ki (binding to free enzyme)
Experimental: Initial velocities for the catalyzed reaction of the isoenzyme hGSTM1-1 with GSH as a variable substrate were performed at 37 °C in a total volume of 1 mL mixture containing 0.75 μg of the isoenzyme GSTM1-1, 0.1 M potassium phosphate buffer (pH 6.5), 1 mM CDNB and different concentrations of GSH in the range of 0.0175–3.75 mM in the presence of different concentrations of the insecticide pirimicarb (0–40 μM). With CDNB as a variable substrate, the reaction mixture total volume (1 mL) contained 0.75 μg of the isoenzyme GSTM1-1, 0.1 M potassium phosphate buffer (pH 6.5), 1 mM GSH and CDNB in the concentration range of 0.015–1.5 mM in the presence of different concentrations of pirimicarb (0–30 μM). The kinetic parameters were determined using the computer program GraphPad Prism 7.

hGSTM1-1 [4] = molecular target: T1, hGSTM1-1; assay: biochemical
Text: Furthermore, the catalytic activity of hGSTM1-1 cannot be regained by extensive dialysis or gel filtration on Sephadex G-25. […] The Kapp calculated by inactivation experiments is in good agreement to that determined by kinetic inhibition analysis.
The rate of inactivation was followed by periodically removing samples for assays of enzymatic activity.

[5] = 25 μM pesticide, CDNB (1 mM)-GSH (2.5 mM) assay, mean of three assays, variation less than 5%, read-out: Inhibition (%)
[6] = 37 °C, pH 6.5, CDNB-GSH assay, read-out: IC50
[7] = 25 μM pesticide, CDNB (1 mM)-GSH (2.5 mM) assay, mean of three assays, variation less than 5%
[8] = GSH as variable substrate, 37 °C, pH 6.5

| Compound | inhibition at 25 µM (hGSTM1-1 [1]; [5]) | other results |
| --- | --- | --- |
| Cc1cc(C)nc(Nc2ccccc2)n1 [Pyrimethanil] | 7.49% | – |
| CCCCOCN(C(=O)CCl)c1c(CC)cccc1CC [Butachlor, butachlor] | 35.3% | IC50 (hGSTM1-1 [2]; [6]): 236 ± 4.5 µM |
| Spinosad | – | Inhibition (%) (hGSTM1-1 [1]; [7]): 0% |
| Cc1nc(N(C)C)nc(OC(=O)N(C)C)c1C [Pirimicarb, pirimicarb] | 52.3% | Ki' (binding to enzyme-CDNB complex) (hGSTM1-1 [3]; CDNB as variable substrate, 37 °C, pH 6.5, 1/Vmax app versus [Pirimicarb]): 44.7 ± 1.14 µM; Inhibition pattern (hGSTM1-1 [3]; GSH as variable substrate): mixed-type inhibition; Ki' (binding to enzyme-GSH complex) (hGSTM1-1 [3]; [8]): 35.97 ± 2.57 µM; Ki (hGSTM1-1 [3]; CDNB as variable substrate, 37 °C, pH 6.5, Slope versus [Pirimicarb]): 37.7 ± 1.03 µM; Ki (hGSTM1-1 [3]; [8]): 24.5 ± 2.86 µM; Inhibition pattern (hGSTM1-1 [3]; towards CDNB): mixed-type inhibition; IC50 (hGSTM1-1 [2]): 17.5 ± 1.75 µM; Kd (hGSTM1-1 [4]): 15.5 ± 1.2 µM; Effect on inactivation of hGSTM1-1 by GS-ESF (hGSTM1-1 [4]; pH 7.4): diminish the observed rate of enzyme inactivation |
| CCNc1nc(Cl)nc(NC(C)C)n1 [Atrazine] | 28.7% | – |
| CCOCN(C(=O)CCl)c1c(C)cccc1CC [Acetochlor, acetochlor] | 13.8% | – |
| COP(=O)(OC)OC=C(Cl)Cl [Dichloros] | – | Inhibition (%) (hGSTM1-1 [1]; [7]): 1.48% |
| CCOC(=O)OC1=C(c2cc(C)ccc2C)C(=O)N[C@]12CC[C@@H](OC)CC2 [Spirotetramat] | 29.3% | – |
| CC(C)NC(=O)N1CC(=O)N(c2cc(Cl)cc(Cl)c2)C1=O [Iprodione] | 19.5% | – |
| CCc1cccc(CC)c1N(COC)C(=O)CCl [Alachlor, alachlor] | 32% | – |
| Cc1cc(C)c(C2=C(OC(=O)CC(C)(C)C)C3(CCCC3)OC2=O)c(C)c1 [Spiromesifen] | – | Inhibition (%) (hGSTM1-1 [1]; [7]): 1.27% |
| CC1(C(=O)Nc2ccc(O)c(Cl)c2Cl)CCCCC1 [Fenhexamid, fenhexamid] | 35.3% | IC50 (hGSTM1-1 [2]; [6]): 278 ± 14.5 µM |
| CNC(=O)CSP(=O)(OC)OC [Omethoate] | – | inhibition at 25 µM (hGSTM1-1 [1]): 3.21% |
| CN(C)C(=O)Nc1ccc(Cl)c(Cl)c1 [Diuron] | 15% | – |
| O=C(NC(=O)c1ccccc1Cl)Nc1ccc(OC(F)(F)F)cc1 [Triflumuron] | 22.7% | – |
| CNC(=O)ON=C(C)SC [Methomyl] | 20% | – |
| CO/N=C(/C(=O)OC)c1ccccc1COc1ccccc1C [Kresoxim-methyl] | 14.5% | – |
| O=S1OC[C@@H]2[C@H](CO1)[C@@]1(Cl)C(Cl)=C(Cl)[C@]2(Cl)C1(Cl)Cl (stereo partly drawn) [alpha Endosulfan] | – | Inhibition (%) (hGSTM1-1 [1]; [7]): 16.66% |
| COC(=O)Nc1nc2ccccc2[nH]1 [Carbedazim] | – | Inhibition (%) (hGSTM1-1 [1]; [7]): 8.00% |
| Cc1cccc(C)c1N(Cn1cccn1)C(=O)CCl [Metazachlor, metazachlor] | 19.7% | – |
| Cl[C@H]1[C@H](Cl)[C@@H](Cl)[C@@H](Cl)[C@H](Cl)[C@H]1Cl [Lindane] | 13% | – |
| COC(=O)Nc1cccc(OC(=O)Nc2cccc(C)c2)c1 [Phenmedipham] | 16% | – |
| CC1(C)[C@H](C(=O)O[C@H](C#N)c2cccc(Oc3ccccc3)c2)[C@@H]1/C=C(\Cl)C(F)(F)F (racemic) [Lambda-Cyhalothrin] | 0% | – |
| OC(Cc1ccccc1Cl)(Cn1nc[nH]c1=S)C1(Cl)CC1 (stereo not shown) [Prothioconazole] | 26.5% | – |
| O=S1OCC2C(CO1)C1(Cl)C(Cl)=C(Cl)C2(Cl)C1(Cl)Cl (stereo not shown) [Endosulfan] | 14.7% | – |
| CSC1=N[C@@](C)(c2ccccc2)C(=O)N1Nc1ccccc1 [Fenamidone] | 0% | – |
| CCC(C)(NC(=O)c1cc(Cl)c(C)c(Cl)c1)C(=O)CCl (stereo not shown) [Zoxamide] | 20% | – |
| CON=C(C(=O)OC)c1ccccc1CON=C(C)c1cccc(C(F)(F)F)c1 [Trifloxystrobin] | 2.88% | – |
| CC(C)N(C(=O)CCl)c1ccccc1 [Propachlor, propachlor] | 11.2% | – |

— article PMC8998827, “Ligandability Assessment of Human Glutathione Transferase M1-1 Using Pesticides as Chemical Probes” (International Journal of Molecular Sciences, 2022)
